From ChEMBL document CHEMBL1201862, “PubChem BioAssay data set” (2004)
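Dose response: 5 concentrations. Exposure: 48 h. Format: 96-well plates. Endpoint: linear interpolation; highest concentration if not reached. The concentration for 50% growth inhibition is given as GI50.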 Active and inactive are the calls of the source. Cut-off read from the data, not from the text of the source: active = GI50 up to about 1.1 µM and inactive = higher.

How the values were obtained:
Assay in all cases: NCI anticancer screen, dose series, 48 h
[1] = system: 786-0
[2] = system: A549
[3] = system: ACHN
[4] = system: BT-549
[5] = system: CAKI-1
[6] = system: CCRF-CEM
[7] = system: COLO 205
[8] = system: DU-145
[9] = system: EKVX
[10] = system: HCC 2998
[11] = system: HCT-116
[12] = system: HCT-15
[13] = system: HL-60
[14] = system: HOP-62
[15] = system: HT-29
[16] = system: Hs-578T
[17] = system: IGROV-1
[18] = system: K562
[19] = system: KM12
[20] = system: M14
[21] = system: MCF7
[22] = system: MDA-MB-231
[23] = system: MDA-MB-435
[24] = system: MDA-N
[25] = system: MOLT-4
[26] = system: NCI-H226
[27] = system: NCI-H23
[28] = system: NCI-H460
[29] = system: NCI-H522
[30] = system: NCI/ADR-RES
[31] = system: OVCAR-3
[32] = system: OVCAR-4
[33] = system: OVCAR-8
[34] = system: PC-3
[35] = system: RPMI-8226
[36] = system: RXF 393
[37] = system: SF-268
[38] = system: SF-295
[39] = system: SF-539
[40] = system: SK-MEL-28
[41] = system: SK-MEL-5
[42] = system: SK-OV-3
[43] = system: SN12C
[44] = system: SNB-19
[45] = system: SNB-75
[46] = system: SR
[47] = system: SW-620
[48] = system: T47D
[49] = system: TK-10
[50] = system: U-251
[51] = system: UACC-257
[52] = system: UACC-62
[53] = system: UO-31
[54] = system: LOX IMVI
[55] = system: Malme-3M
[56] = system: OVCAR-5
[57] = system: HOP-92
[58] = system: SK-MEL-2

Compound: CN(C(=O)CC(=O)CP(=O)(c1ccccc1)c1ccccc1)c1ccccc1
- GI50 [1]: > 100 µM (inactive)
- GI50 [2]: > 100 µM (inactive)
- GI50 [3]: > 100 µM (inactive)
- GI50 [4]: > 100 µM (inactive)
- GI50 [5]: > 100 µM (inactive)
- GI50 [6]: > 100 µM (inactive)
- GI50 [7]: > 100 µM (inactive)
- GI50 [8]: > 100 µM (inactive)
- GI50 [9]: > 100 µM (inactive)
- GI50 [10]: > 100 µM (inactive)
- GI50 [11]: > 100 µM (inactive)
- GI50 [12]: > 100 µM
- GI50 [13]: > 100 µM (inactive)
- GI50 [14]: > 100 µM (inactive)
- GI50 [15]: > 100 µM (inactive)
- GI50 [16]: > 100 µM (inactive)
- GI50 [17]: > 100 µM (inactive)
- GI50 [18]: > 100 µM (inactive)
- GI50 [19]: > 100 µM (inactive)
- GI50 [20]: > 100 µM (inactive)
- GI50 [21]: > 100 µM (inactive)
- GI50 [22]: > 100 µM (inactive)
- GI50 [23]: > 100 µM (inactive)
- GI50 [24]: > 100 µM (inactive)
- GI50 [25]: > 100 µM (inactive)
- GI50 [26]: > 100 µM (inactive)
- GI50 [27]: > 100 µM (inactive)
- GI50 [28]: > 100 µM (inactive)
- GI50 [29]: > 100 µM (inactive)
- GI50 [30]: > 100 µM (inactive)
- GI50 [31]: > 100 µM (inactive)
- GI50 [32]: > 100 µM (inactive)
- GI50 [33]: > 100 µM (inactive)
- GI50 [34]: > 100 µM (inactive)
- GI50 [35]: > 100 µM (inactive)
- GI50 [36]: > 100 µM (inactive)
- GI50 [37]: > 100 µM (inactive)
- GI50 [38]: > 100 µM (inactive)
- GI50 [39]: > 100 µM (inactive)
- GI50 [40]: > 100 µM (inactive)
- GI50 [41]: > 100 µM (inactive)
- GI50 [42]: > 100 µM (inactive)
- GI50 [43]: > 100 µM (inactive)
- GI50 [44]: > 100 µM (inactive)
- GI50 [45]: > 100 µM (inactive)
- GI50 [46]: > 100 µM (inactive)
- GI50 [47]: > 100 µM (inactive)
- GI50 [48]: > 100 µM (inactive)
- GI50 [49]: > 100 µM (inactive)
- GI50 [50]: > 100 µM (inactive)
- GI50 [51]: > 100 µM (inactive)
- GI50 [52]: > 100 µM (inactive)
- GI50 [53]: > 100 µM (inactive)

Compound: CC(=O)N1CCN(CCCCN2c3ccccc3Sc3cc(N=[N+]=[N-])ccc32)CC1
- GI50 [1]: 15.6 µM (inactive)
- GI50 [2]: 16.1 µM (inactive)
- GI50 [3]: 14.9 µM (inactive)
- GI50 [4]: 17.3 µM (inactive)
- GI50 [5]: 12.1 µM (inactive)
- GI50 [6]: 14.5 µM (inactive)
- GI50 [7]: 14.2 µM (inactive)
- GI50 [8]: 18.1 µM (inactive)
- GI50 [9]: 18.2 µM (inactive)
- GI50 [10]: 14.5 µM (inactive)
- GI50 [11]: 13.8 µM (inactive)
- GI50 [12]: 14.9 µM
- GI50 [13]: 8.87 µM (inactive)
- GI50 [14]: 14.3 µM (inactive)
- GI50 [15]: 13.6 µM (inactive)
- GI50 [16]: 15 µM (inactive)
- GI50 [17]: 15.2 µM (inactive)
- GI50 [18]: 8.65 µM (inactive)
- GI50 [19]: 13.5 µM (inactive)
- GI50 [54]: 14.9 µM (inactive)
- GI50 [21]: 14 µM (inactive)
- GI50 [22]: 13.8 µM (inactive)
- GI50 [23]: 15.6 µM (inactive)
- GI50 [24]: 16.7 µM (inactive)
- GI50 [25]: 8.47 µM (inactive)
- GI50 [55]: 17.1 µM (inactive)
- GI50 [26]: 17.6 µM (inactive)
- GI50 [27]: 15.7 µM (inactive)
- GI50 [28]: 14.1 µM (inactive)
- GI50 [29]: 13 µM (inactive)
- GI50 [30]: 12.6 µM (inactive)
- GI50 [31]: 12.8 µM (inactive)
- GI50 [56]: 13.7 µM (inactive)
- GI50 [33]: 15.4 µM (inactive)
- GI50 [34]: 7 µM (inactive)
- GI50 [35]: 10.5 µM (inactive)
- GI50 [36]: 9.1 µM (inactive)
- GI50 [37]: 18.2 µM (inactive)
- GI50 [38]: 16.8 µM (inactive)
- GI50 [39]: 17.4 µM (inactive)
- GI50 [40]: 18.1 µM (inactive)
- GI50 [43]: 15.6 µM (inactive)
- GI50 [44]: 14.5 µM (inactive)
- GI50 [45]: 13 µM (inactive)
- GI50 [46]: 9.06 µM (inactive)
- GI50 [47]: 15.5 µM (inactive)
- GI50 [48]: 3.65 µM (inactive)
- GI50 [49]: 17.4 µM (inactive)
- GI50 [50]: 14.4 µM (inactive)
- GI50 [51]: 24.5 µM (inactive)
- GI50 [52]: 2.69 µM (inactive)
- GI50 [53]: 11.3 µM (inactive)

Compound: COc1ccc(/N=N/c2c(C)c(C#N)c(=S)n(C3OC(COC(C)=O)C(OC(C)=O)C(OC(C)=O)C3OC(C)=O)c2C)cc1 (stereo unspecified)
- GI50 [1]: 22.5 µM (inactive)
- GI50 [2]: > 100 µM (inactive)
- GI50 [3]: > 100 µM (inactive)
- GI50 [4]: > 100 µM (inactive)
- GI50 [5]: > 100 µM (inactive)
- GI50 [6]: > 100 µM (inactive)
- GI50 [7]: > 100 µM (inactive)
- GI50 [8]: > 100 µM (inactive)
- GI50 [10]: > 100 µM (inactive)
- GI50 [11]: > 100 µM (inactive)
- GI50 [13]: > 100 µM (inactive)
- GI50 [14]: 64.3 µM (inactive)
- GI50 [57]: 24.6 µM (inactive)
- GI50 [15]: > 100 µM (inactive)
- GI50 [16]: 23.3 µM (inactive)
- GI50 [17]: > 100 µM (inactive)
- GI50 [18]: > 100 µM (inactive)
- GI50 [19]: > 100 µM (inactive)
- GI50 [54]: > 100 µM (inactive)
- GI50 [20]: 90.6 µM (inactive)
- GI50 [21]: > 100 µM (inactive)
- GI50 [22]: 21.7 µM (inactive)
- GI50 [23]: > 10 µM (inactive)
- GI50 [24]: > 100 µM (inactive)
- GI50 [25]: > 100 µM (inactive)
- GI50 [55]: > 100 µM (inactive)
- GI50 [27]: > 100 µM (inactive)
- GI50 [28]: > 100 µM (inactive)
- GI50 [30]: > 100 µM (inactive)
- GI50 [31]: > 100 µM (inactive)
- GI50 [32]: > 100 µM (inactive)
- GI50 [56]: > 100 µM (inactive)
- GI50 [34]: > 100 µM (inactive)
- GI50 [35]: > 100 µM (inactive)
- GI50 [36]: 62.5 µM (inactive)
- GI50 [37]: > 100 µM (inactive)
- GI50 [38]: 57.5 µM (inactive)
- GI50 [39]: > 100 µM (inactive)
- GI50 [40]: > 100 µM (inactive)
- GI50 [41]: > 100 µM (inactive)
- GI50 [42]: 54.5 µM (inactive)
- GI50 [43]: > 100 µM (inactive)
- GI50 [44]: > 100 µM (inactive)
- GI50 [45]: 16.1 µM (inactive)
- GI50 [46]: > 100 µM (inactive)
- GI50 [47]: > 100 µM (inactive)
- GI50 [48]: > 100 µM (inactive)
- GI50 [49]: > 100 µM (inactive)
- GI50 [50]: 8.09 µM (inactive)
- GI50 [51]: > 100 µM (inactive)
- GI50 [52]: > 100 µM (inactive)
- GI50 [53]: > 100 µM (inactive)

Compound: COc1cc(/C=C/C(=O)OCCc2ccccc2)ccc1O
- GI50 [1]: 15.7 µM (inactive)
- GI50 [2]: 18.4 µM (inactive)
- GI50 [3]: 18.5 µM (inactive)
- GI50 [4]: 14.7 µM (inactive)
- GI50 [5]: 15.9 µM (inactive)
- GI50 [7]: 19.4 µM (inactive)
- GI50 [8]: 16.6 µM (inactive)
- GI50 [9]: 16.3 µM (inactive)
- GI50 [10]: 21 µM (inactive)
- GI50 [11]: 17.7 µM (inactive)
- GI50 [12]: 21.7 µM
- GI50 [13]: 0.352 µM (active)
- GI50 [14]: 16.3 µM (inactive)
- GI50 [15]: 21.3 µM (inactive)
- GI50 [16]: 25.6 µM (inactive)
- GI50 [17]: 14.1 µM (inactive)
- GI50 [18]: 20.1 µM (inactive)
- GI50 [19]: 14.6 µM (inactive)
- GI50 [54]: 14.5 µM (inactive)
- GI50 [20]: 15 µM (inactive)
- GI50 [21]: 20.8 µM (inactive)
- GI50 [22]: 14.2 µM (inactive)
- GI50 [23]: 13.4 µM (inactive)
- GI50 [24]: 19.1 µM (inactive)
- GI50 [25]: 14.5 µM (inactive)
- GI50 [55]: 16.4 µM (inactive)
- GI50 [27]: 17.2 µM (inactive)
- GI50 [28]: 18.6 µM (inactive)
- GI50 [29]: 5.4 µM (inactive)
- GI50 [30]: 23.7 µM (inactive)
- GI50 [31]: 18.1 µM (inactive)
- GI50 [32]: 13 µM (inactive)
- GI50 [56]: 18.2 µM (inactive)
- GI50 [33]: 28.5 µM (inactive)
- GI50 [34]: 14.2 µM (inactive)
- GI50 [35]: 20.5 µM (inactive)
- GI50 [37]: 20.5 µM (inactive)
- GI50 [38]: 17.3 µM (inactive)
- GI50 [39]: 18.6 µM (inactive)
- GI50 [40]: 13.9 µM (inactive)
- GI50 [58]: 21.6 µM (inactive)
- GI50 [41]: 19.5 µM (inactive)
- GI50 [42]: 16.1 µM (inactive)
- GI50 [43]: 19.8 µM (inactive)
- GI50 [44]: 17.9 µM (inactive)
- GI50 [45]: 15.2 µM (inactive)
- GI50 [46]: 24.7 µM (inactive)
- GI50 [47]: 22.2 µM (inactive)
- GI50 [48]: 13.5 µM (inactive)
- GI50 [49]: 15.1 µM (inactive)
- GI50 [50]: 16 µM (inactive)
- GI50 [51]: 18.1 µM (inactive)
- GI50 [52]: 12.7 µM (inactive)
- GI50 [53]: 13.9 µM (inactive)
